These results are taken from patent US7560473B2 (Institute of Pharmacology and Toxicology Academy of …, priority 2001, dated 2009).

Marks after values point to notes of the source that are not given here.

Experiment [1] addresses T1, ATP-sensitive potassium channels in vascular smooth muscles (Rattus norvegicus, UniProt Q63563).
T1 construct: The aorta was cut into about 3-5 mm arterial rings and the vascular endothelium was scraped off; from tissue; host or cells: endothelium-removed aortic rings of male Wistar rats
As to the kind of experiment: Association and dissociation kinetics of [^3H]glibenclamide binding in aortic rings. Also on record: species or system Wistar rat. The settings on record: drug M: compound 1 10^−4, pinacidil 10^−4, ATP 10^−2, ADP 10^−3, UDP 5 × 10^−3, Ade 10^−3; for Dissociation kinetics k2 of [^3H]glibenclamide binding / Association kinetics k1 of [^3H]glibenclamide binding / Association kinetics kobs of [^3H]glibenclamide binding / Association kinetics kA of [^3H]glibenclamide binding: 25° C.; for Dissociation kinetics k2 of [^3H]glibenclamide binding: control 0.72 ± 0.11; for Dissociation kinetics Kd of [^3H]glibenclamide binding in presence of the drug: Kd of the radioligand, not of the drug, control 0.55 ± 0.14; for Association kinetics k1 of [^3H]glibenclamide binding / Association kinetics kobs of [^3H]glibenclamide binding / Association kinetics kA of [^3H]glibenclamide binding: [^3H]-glibenclamide 3 nM; for Association kinetics k1 of [^3H]glibenclamide binding: control 1.31 ± 0.14; for Association kinetics kobs of [^3H]glibenclamide binding: control 4.65 ± 0.37, means ± SD, n = 4~10; for Association kinetics kA of [^3H]glibenclamide binding: control 181.90 ± 46.90. The source says:
(§1) Biological activity experiment 4. Allosteric regulation of novel compounds on ATP-sensitive potassium channels in vascular smooth muscles.
(§2) To study the allosteric regulation of compound 1 on ATP-sensitive potassium channels in vascular smooth muscles, the radio-labled-ligand was used in the biological activity experiment 4.
1. The allosteric regulation of compound 1 on the binding sites for the selective KATP blocker glibenclamide in vascular smooth muscles was studied as follows: After decapitated, the male Wistar rat (340±20 g) was immediately incised open the thoracic cavity. The aorta was dissected and immersed in the 4° C. buffer containing 10 mM HEPES to wash off the blood, then carefully extirpated the fat, peripheral connective tissues and thrombus. The aorta was cut into about 3-5 mm arterial rings and the vascular endothelium was scraped off with wet tampon. The arterial rings were blotted, weighted and transferred into the tubes containing proper amount of ice colded physiological saline buffer. […] At 5,10,15,20,30,60,90 and 120 min after incubation, 9 mL ice colded Tris buffer (50 mM) was added to terminate the reaction. After washing off the free and bound [^3H]-glibenclamide, the aorta was blotted, transferred to a scintillator, added 50 uL 30% H2O2 and reacted for 2 h at 80° C. After cooling, 2.5 mL ethyl glycol and 5 mL 1% B-BPD xylene were added in sequence, kept stationary for 8 h and measured under a scintillometer for cpm value. The resulting data were fit into a regression line with In[BEQ/(BEQ-Bt)]vs.t and the parameters for association kinetics were obtained. In the disassociation kinetics experiments, the aorta treated as described above and [^3H]-glibenclamide were incubated for 60 min at 25° C., and then 30 uM glibenclamide was added. 0,5,15,30,60,90 and 120 min later, the cpm values for the complex of [^3H]-glibenclamide and KATP were measured. The resulting data were fit into a regression line with In(B/BEQ)]vs.t and the parameters for disassociation kinetics were obtained. 2. The allosteric regulation of compound 1 on the binding sites for the selective KATP activator P1075 in vascular smooth muscles was studied with the method as described above, but some conditions should be changed as follows: the incubation temperature was 37° C. instead of 25° C.;P1075 was used instead of glibenclamide; In the association kinetics experiments, the time points for sampling were 5,10,15,20,30,45,60 and 90 min, while in the disassociation kinetics experiments, that were 1,3,5,10,20,30,45 and 60 min. Biological activity experiment 5. The effects of compound 1 on the specific binding of high selective activator [^3H]P1075 with ATP-sensitive potassium channels in vascular smooth muscles.

Experiment [2] concerns the target T1, ATP-sensitive potassium channels in vascular smooth muscles. The experiment is described as follows: Association kinetics of [^3H]P1075 binding in aortic rings. Also on record: species or system Wistar rat. The settings on record: 37° C.; drug M: Compound 1 10^−4, Glibencamide 10^−5, ATP 10^−2, ADP 10^−3, UDP 5 × 10^−5, GTP 10^−3, Ade 10^−3; control 4.36 ± 0.45; means ± SD, n = 4~10.
Text: as §1, §2
1. The allosteric regulation of compound 1 on the binding sites for the selective KATP blocker glibenclamide in vascular smooth muscles was studied as follows: After decapitated, the male Wistar rat (340±20 g) was immediately incised open the thoracic cavity. The aorta was dissected and immersed in the 4° C. buffer containing 10 mM HEPES to wash off the blood, then carefully extirpated the fat, peripheral connective tissues and thrombus. The aorta was cut into about 3-5 mm arterial rings and the vascular endothelium was scraped off with wet tampon. The arterial rings were blotted, weighted and transferred into the tubes containing proper amount of ice colded physiological saline buffer. In the association kinetics experiment, the arterial circles in the tubes were incubated with, compound 1(10^−4M), pinacidil(10^−4M), ATP(10^−2M), ADP(10^−3M), Ade(10^−3M), […] and equal volume of buffer respectively for 10 min in 25° C. water bath, and then added [^3H]-glibenclamide(3 nM). At 5,10,15,20,30,60,90 and 120 min after incubation, 9 mL ice colded Tris buffer (50 mM) was added to terminate the reaction. After washing off the free and bound [^3H]-glibenclamide, the aorta was blotted, transferred to a scintillator, added 50 uL 30% H2O2 and reacted for 2 h at 80° C. After cooling, 2.5 mL ethyl glycol and 5 mL 1% B-BPD xylene were added in sequence, kept stationary for 8 h and measured under a scintillometer for cpm value. The resulting data were fit into a regression line with In[BEQ/(BEQ-Bt)]vs.t and the parameters for association kinetics were obtained. In the disassociation kinetics experiments, the aorta treated as described above and [^3H]-glibenclamide were incubated for 60 min at 25° C., and then 30 uM glibenclamide was added. 0,5,15,30,60,90 and 120 min later, the cpm values for the complex of [^3H]-glibenclamide and KATP were measured. The resulting data were fit into a regression line with In(B/BEQ)]vs.t and the parameters for disassociation kinetics were obtained. 2. The allosteric regulation of compound 1 on the binding sites for the selective KATP activator P1075 in vascular smooth muscles was studied with the method as described above, but some conditions should be changed as follows: the incubation temperature was 37° C. instead of 25° C.;P1075 was used instead of glibenclamide; In the association kinetics experiments, the time points for sampling were 5,10,15,20,30,45,60 and 90 min, while in the disassociation kinetics experiments, that were 1,3,5,10,20,30,45 and 60 min. Biological activity experiment 5. The effects of compound 1 on the specific binding of high selective activator [^3H]P1075 with ATP-sensitive potassium channels in vascular smooth muscles.

Experiment [3] has the same target. As to the kind of experiment: Inhibition of specific binding of [^3H]P1075 in endothelium-removed rat aorta. Also on record: species or system Wistar rat. The settings on record: [^3H] P1075 5 nmol L^−1, 90 minutes at 37° C., endothelium-removed rat aorta.
The test system of the next experiment is SHRsp. The experiment is described as follows: Prophylaxis and treatment of SHRsp cerebral apoplexy. It counts as in vivo, rats. The settings on record: 40 mg · kg^−1d^−1 fed. The protocol: Biological activity experiment 8 the prophylaxis and treatment of cerebral apoplexy with compound 1 of formula Ia
The methods of biological activity experiments were carried out as follows: Desired concentration of compound 1 was prepared with distilled water, while desired concentration of nimodipine was prepared with market available Jinglongyu^T oil. 30 male and 30 female SHRsp (10 weeks old, 120-180 g) were purchased from the vascular disease research center of Academy of Military Medical Science. All SHRsp were divided randomly into five groups based on blood pressure, body weight and sex: control group (fed with equal amount of Jinglongyu^T oil), […], […], […], and 4.0 mg.kg^−1d^−1 nimodipine treated group. Each group contained 12 animals and 4-5 animals were fed in a cage. The feedstaff (containing 23-24% protein) was purchased from experimental animal center of Academy of Military Medical Science. The animals were fed with tap water containing 1% NaCl to accelerate the onset of cerebral apoplexy. 12 normal WKY rats (with the same age and sex with the above) were selected as control, and fed with tap water and the same feedstuff. When reached 11 weeks old, the animals were fed with drugs for experiments.

T1 sequence (Q63563 1-1545 isoform Q63563-2): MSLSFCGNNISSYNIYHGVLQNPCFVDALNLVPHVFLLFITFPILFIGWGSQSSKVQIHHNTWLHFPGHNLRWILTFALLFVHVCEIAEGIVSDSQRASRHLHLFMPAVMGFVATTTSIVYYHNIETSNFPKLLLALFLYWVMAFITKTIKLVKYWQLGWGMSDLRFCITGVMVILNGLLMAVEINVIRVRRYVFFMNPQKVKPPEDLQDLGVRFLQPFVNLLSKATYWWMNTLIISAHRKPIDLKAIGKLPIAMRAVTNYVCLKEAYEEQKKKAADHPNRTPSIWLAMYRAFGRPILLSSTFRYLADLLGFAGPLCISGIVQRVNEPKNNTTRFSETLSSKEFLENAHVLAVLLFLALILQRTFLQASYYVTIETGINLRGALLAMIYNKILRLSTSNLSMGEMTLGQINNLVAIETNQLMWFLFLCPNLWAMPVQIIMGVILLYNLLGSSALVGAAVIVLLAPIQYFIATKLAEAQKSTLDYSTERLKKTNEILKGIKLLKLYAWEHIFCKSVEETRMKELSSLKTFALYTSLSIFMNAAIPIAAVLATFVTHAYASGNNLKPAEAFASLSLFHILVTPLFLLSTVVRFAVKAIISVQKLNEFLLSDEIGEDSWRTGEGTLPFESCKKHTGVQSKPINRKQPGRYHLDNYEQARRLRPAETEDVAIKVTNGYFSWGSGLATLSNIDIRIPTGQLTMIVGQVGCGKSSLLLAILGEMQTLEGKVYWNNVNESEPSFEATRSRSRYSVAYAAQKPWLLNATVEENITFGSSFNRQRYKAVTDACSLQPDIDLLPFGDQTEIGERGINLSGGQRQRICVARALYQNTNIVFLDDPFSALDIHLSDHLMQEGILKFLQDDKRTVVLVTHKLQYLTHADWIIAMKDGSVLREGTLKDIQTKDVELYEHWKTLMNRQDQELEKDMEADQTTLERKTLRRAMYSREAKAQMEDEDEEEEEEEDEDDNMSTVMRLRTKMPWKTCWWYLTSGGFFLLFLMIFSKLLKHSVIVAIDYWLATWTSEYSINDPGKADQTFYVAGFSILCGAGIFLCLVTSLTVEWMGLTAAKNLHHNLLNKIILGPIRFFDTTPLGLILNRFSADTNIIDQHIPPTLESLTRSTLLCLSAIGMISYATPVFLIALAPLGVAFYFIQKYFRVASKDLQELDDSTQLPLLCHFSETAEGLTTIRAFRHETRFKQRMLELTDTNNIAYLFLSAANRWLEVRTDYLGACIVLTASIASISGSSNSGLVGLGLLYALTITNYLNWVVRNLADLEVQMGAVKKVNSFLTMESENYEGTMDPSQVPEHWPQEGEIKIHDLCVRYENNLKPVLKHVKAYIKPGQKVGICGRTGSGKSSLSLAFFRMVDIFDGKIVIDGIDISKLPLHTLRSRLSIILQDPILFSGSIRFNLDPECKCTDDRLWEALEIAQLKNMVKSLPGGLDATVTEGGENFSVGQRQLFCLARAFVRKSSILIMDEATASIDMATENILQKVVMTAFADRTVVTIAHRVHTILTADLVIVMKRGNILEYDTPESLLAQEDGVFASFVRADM
T1 sequence (Q63664 whole entry partner): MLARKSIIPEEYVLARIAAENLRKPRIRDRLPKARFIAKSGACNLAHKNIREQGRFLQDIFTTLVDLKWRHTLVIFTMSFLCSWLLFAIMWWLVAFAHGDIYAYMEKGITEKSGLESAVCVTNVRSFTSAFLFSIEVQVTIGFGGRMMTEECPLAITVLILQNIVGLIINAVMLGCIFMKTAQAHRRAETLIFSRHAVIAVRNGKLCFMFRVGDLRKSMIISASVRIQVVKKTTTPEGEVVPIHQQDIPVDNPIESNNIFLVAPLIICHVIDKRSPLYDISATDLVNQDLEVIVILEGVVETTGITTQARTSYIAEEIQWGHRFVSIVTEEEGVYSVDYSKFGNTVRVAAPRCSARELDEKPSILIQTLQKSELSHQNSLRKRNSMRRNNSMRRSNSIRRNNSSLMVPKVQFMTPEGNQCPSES

`O=c1ccn([C@@H]2O[C@H](COP(=O)(O)OP(=O)(O)O)[C@@H](O)[C@H]2O)c(=O)[nH]1` [UDP]: in experiment [1], the “Dissociation kinetics k2 of [^3H]glibenclamide binding” value (“Dissociation kinetics k2” below) was 0.80 ± 0.22 ×10^2 nM^−1 · min^−1, the “Dissociation kinetics Kd of [^3H]glibenclamide binding in presence of the drug” value (“Dissociation kinetics Kd” below) is 0.70 ± 0.24 nM, the “Association kinetics k1 of [^3H]glibenclamide binding” value (“Association kinetics k1” below) is 1.15 ± 0.23 ×10^−2nM^−1 · min^−1 and the “Association kinetics kobs of [^3H]glibenclamide binding” value was 4.26 ± 0.65 ×10^−2nM^−1 · min^−1. For the same compound, the “Association kinetics kA of [^3H]glibenclamide binding” value (shortened to “Association kinetics kA”) in experiment [1] is 143.50 ± 49.00 ×10^−2nM^−1 · min^−1. For the same compound, in experiment [2], the “Association kinetics kobs of [^3H]P1075 binding” value is on record as 5.53 ± 0.51 ×10^−2 nM^−1 · min^−1.

`Nc1ncnc2c1ncn2[C@@H]1O[C@H](COP(=O)(O)OP(=O)(O)OP(=O)(O)O)[C@@H](O)[C@H]1O` [ATP, adenosine triphosphate]: in experiment [1], the “Dissociation kinetics k2” value is 0.42 ± 0.14 ×10^2 nM^−1 · min^−1, the “Dissociation kinetics Kd” value was determined as 0.17 ± 0.06 nM, the “Association kinetics k1” value was 2.42 ± 0.34 ×10^−2nM^−1 · min^−1 and the “Association kinetics kobs of [^3H]glibenclamide binding” value is 7.69 ± 1.01 ×10^−2nM^−1 · min^−1. Moreover, in experiment [1], the “Association kinetics kA” value is recorded as 590.2 ± 208.20 ×10^−2nM^−1 · min^−1. Besides, the “Association kinetics kobs of [^3H]P1075 binding” value in experiment [2] is listed as 2.85 ± 0.08 ×10^−2 nM^−1 · min^−1.

As for `CCC(C)(C)N=C(NC#N)Nc1cccnc1` [P1075, reference compound], the IC50 in experiment [3] was 9.1 ± 1.3 nM.

`COCCOC(=O)C1=C(C)NC(C)=C(C(=O)OC(C)C)C1c1cccc([N+](=O)[O-])c1` (stereo not drawn) [Nimodipine, nimodipine, reference compound] displayed a Survival time in the experiment with SHRsp (control 4.6 ± 3.8, means ± SD) of 11.1 ± 2.7 days. Further, the “Period needed for onset of cerebral apoplexy” value with SHRsp (control 48.3 ± 7.4, means ± SD) was found to be 66.0 ± 14.8 days. The “Death rate of cerebral apoplexy” value with SHRsp (n 12, control 50.0) is on record as 9.1* %. In addition, the “Rate of cerebral apoplexy” value in the experiment with SHRsp (n 12, control 83.3) is given as 36.4* %.

With `Nc1nc2c(ncn2[C@@H]2O[C@H](COP(=O)(O)OP(=O)(O)OP(=O)(O)O)[C@@H](O)[C@H]2O)c(=O)[nH]1` [GTP], the “Association kinetics kobs of [^3H]P1075 binding” value in experiment [2] is 3.86 ± 0.19 ×10^−2 nM^−1 · min^−1.

Regarding `COc1ccc(Cl)cc1C(=O)NCCc1ccc(S(=O)(=O)NC(=O)NC2CCCCC2)cc1` [glibenclamide, reference compound], in experiment [3], the IC50 came to 58900 ± 4600 nM. Also, the Ki in experiment [3] (read-out: pKi for inhibition of specific binding of [^3H]P1075 (converted)) was 58900 nM. In experiment [2], the “Association kinetics kobs of [^3H]P1075 binding” value is listed as 3.12 ± 0.17 ×10^−2 nM^−1 · min^−1.

As to `Nc1ncnc2c1ncn2[C@@H]1O[C@H](COP(=O)(O)OP(=O)(O)O)[C@@H](O)[C@H]1O` [ADP], in experiment [1], the “Dissociation kinetics k2” value was 0.94 ± 0.10 ×10^2 nM^−1 · min^−1, the “Dissociation kinetics Kd” value came to 2.09 ± 1.12 nM, the “Association kinetics k1” value is reported as 0.45 ± 0.24 ×10^−2nM^−1 · min^−1 and the “Association kinetics kobs of [^3H]glibenclamide binding” value is given as 2.28 ± 0.70 ×10^−2nM^−1 · min^−1. In experiment [1], the “Association kinetics kA” value is 47.80 ± 25.70 ×10^−2nM^−1 · min^−1. Further, in experiment [2], the “Association kinetics kobs of [^3H]P1075 binding” value is 2.63 ± 0.48 ×10^−2 nM^−1 · min^−1.
